Values of other authors, collected in patent US8871812B2, “Therapeutic regimen comprising PEG-interferon, ribavirin and VX-950 for the treatment of hepatitis” (priority 2008, dated 2014).

Test system: HCV
Conditions: monotherapy; cited from earlier work

Substance: interferon alfa
- cases with long term remission: ~25%
